According to ChEMBL document CHEMBL1201862, “PubChem BioAssay data set” (2004):
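Assay format: 96-well plates, 48-hour exposure. GI50: concentration for 50% inhibition of growth.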 Calls of active or inactive are those of the source. No stated cut-off is given here; in the data, active = GI50 up to about 1.1 µM and inactive = higher.

Legend:
Assay in all cases: NCI tumour cell line growth inhibition, 48 h
DU-145 = tested on: DU-145
K562 = tested on: K562
HCC 2998 = tested on: HCC 2998
UACC-257 = tested on: UACC-257
U-251 = tested on: U-251
PC-3 = tested on: PC-3
MDA-MB-231 = tested on: MDA-MB-231
MDA-N = tested on: MDA-N
CCRF-CEM = tested on: CCRF-CEM
SW-620 = tested on: SW-620
SF-268 = tested on: SF-268
TK-10 = tested on: TK-10
NCI-H460 = tested on: NCI-H460
COLO 205 = tested on: COLO 205
OVCAR-4 = tested on: OVCAR-4
SNB-19 = tested on: SNB-19
CAKI-1 = tested on: CAKI-1
HL-60 = tested on: HL-60
A549 = tested on: A549
SK-MEL-5 = tested on: SK-MEL-5

Measured: GI50

COc1ccc(C(=O)N=C2N(c3ccccc3)C(=N/c3ccccc3)/C(=N\c3ccccc3)N2c2ccccc2)cc1
inactive: DU-145 > 100 µM | K562 > 100 µM | HCC 2998 > 85.7 µM | UACC-257 48.2 µM | U-251 19.1 µM | PC-3 16.8 µM | MDA-MB-231 > 62.8 µM | MDA-N 19.2 µM | CCRF-CEM > 100 µM | SW-620 99.8 µM | SF-268 65.8 µM | TK-10 18.5 µM | NCI-H460 47.1 µM | COLO 205 > 100 µM | OVCAR-4 21.9 µM | SNB-19 19.2 µM | CAKI-1 39.9 µM | HL-60 > 100 µM | A549 30.3 µM | SK-MEL-5 23.2 µM

Nc1ccc(-c2nc3ccccc3s2)cc1
inactive: DU-145 16.4 µM | K562 21.9 µM | HCC 2998 59.7 µM | UACC-257 22 µM | U-251 17.4 µM | PC-3 14.9 µM | MDA-MB-231 17.9 µM | MDA-N 19.5 µM | CCRF-CEM 14.6 µM | SW-620 20 µM | SF-268 10.3 µM | TK-10 24.5 µM | NCI-H460 20.8 µM | COLO 205 23.8 µM | OVCAR-4 14.8 µM | SNB-19 28.1 µM | CAKI-1 24.2 µM | HL-60 24.9 µM | A549 23 µM | SK-MEL-5 21.6 µM

CCCCCC(/C=C/[C@@H]1CC(=O)C[C@H]1O[Si](C)(C)C(C)(C)C)OCOCCOC (some centres not stated)
inactive: DU-145 16.3 µM | K562 2.4 µM | HCC 2998 13.6 µM | UACC-257 3.68 µM | U-251 2.52 µM | PC-3 4.16 µM | MDA-MB-231 4.48 µM | MDA-N 3.41 µM | CCRF-CEM > 100 µM | SW-620 2.96 µM | SF-268 2.98 µM | TK-10 12.9 µM | NCI-H460 17.2 µM | COLO 205 5.2 µM | OVCAR-4 5.56 µM | SNB-19 4.52 µM | CAKI-1 3.07 µM | HL-60 > 100 µM | A549 9.55 µM | SK-MEL-5 3.33 µM

COc1ccc2c(c1)CC[C@@H]1[C@@H]2CC[C@]2(C)C(=O)/C(=C/c3ccc(O)c(OC)c3)C[C@@H]12
inactive: DU-145 92.9 µM | K562 50.5 µM | HCC 2998 31.6 µM | UACC-257 57.8 µM | U-251 51.3 µM | PC-3 39.1 µM | MDA-MB-231 37.2 µM | MDA-N 57.1 µM | CCRF-CEM 66.2 µM | SW-620 58.2 µM | TK-10 43.1 µM | NCI-H460 39.4 µM | COLO 205 > 100 µM | OVCAR-4 55.8 µM | SNB-19 > 100 µM | CAKI-1 67.8 µM | HL-60 47.8 µM | A549 51.6 µM | SK-MEL-5 33.9 µM

CC1(C)OC2OC(C(=O)c3ccccc3)C3OC(C)(C)OC3C2O1 (configuration not stated)
inactive: DU-145 > 100 µM | K562 > 100 µM | HCC 2998 > 100 µM | UACC-257 > 100 µM | U-251 > 100 µM | PC-3 > 100 µM | MDA-MB-231 > 100 µM | MDA-N > 100 µM | CCRF-CEM > 100 µM | SW-620 > 100 µM | SF-268 > 100 µM | TK-10 > 100 µM | NCI-H460 > 100 µM | COLO 205 > 100 µM | OVCAR-4 > 100 µM | SNB-19 > 100 µM | CAKI-1 > 100 µM | HL-60 > 100 µM | SK-MEL-5 > 100 µM

CC(CC(C)[C@H]1CCC2[C@H]3C(CC[C@@]21C)[C@@]1(C)CCC(O)C[C@H]1C[C@@H]3O)C(=O)O (some centres not stated)
inactive: DU-145 > 100 µM | K562 26.2 µM | HCC 2998 > 100 µM | UACC-257 > 100 µM | U-251 > 100 µM | PC-3 > 100 µM | MDA-MB-231 > 100 µM | MDA-N > 100 µM | CCRF-CEM > 100 µM | SW-620 > 100 µM | SF-268 > 100 µM | TK-10 > 100 µM | NCI-H460 > 100 µM | COLO 205 > 100 µM | OVCAR-4 > 100 µM | SNB-19 > 100 µM | CAKI-1 > 100 µM | HL-60 > 100 µM | A549 > 100 µM

CS/C1=C(\c2ccc(C)cc2)N(c2ccccc2)C(=O)C(=O)N(c2ccccc2)/C(c2ccc(C)cc2)=C(/SC)SS1
inactive: DU-145 > 100 µM | K562 > 100 µM | HCC 2998 > 100 µM | UACC-257 > 100 µM | U-251 > 100 µM | PC-3 > 100 µM | MDA-MB-231 > 100 µM | MDA-N > 100 µM | CCRF-CEM > 100 µM | SW-620 > 100 µM | SF-268 > 100 µM | TK-10 > 100 µM | NCI-H460 > 100 µM | COLO 205 > 100 µM | OVCAR-4 > 100 µM | SNB-19 > 100 µM | CAKI-1 > 100 µM | HL-60 > 100 µM

CN(C)/N=C1\CC(c2ccccc2)C(C#N)(C#N)C1(C#N)C#N (configuration not stated)
inactive: DU-145 21 µM | K562 3.2 µM | HCC 2998 18.7 µM | UACC-257 18.6 µM | U-251 35.3 µM | PC-3 19 µM | MDA-MB-231 21.7 µM | MDA-N 20.8 µM | CCRF-CEM 6.14 µM | SW-620 6.61 µM | SF-268 20.1 µM | TK-10 17.5 µM | COLO 205 5.56 µM | OVCAR-4 33.2 µM | SNB-19 24.5 µM | CAKI-1 8.63 µM | HL-60 2.5 µM | A549 36.4 µM | SK-MEL-5 11.6 µM

CCOC(=O)C(Cl)(NC(=O)OCc1ccccc1)C(F)(F)F (configuration not stated)
inactive: DU-145 > 100 µM | K562 > 100 µM | HCC 2998 > 100 µM | UACC-257 > 100 µM | U-251 > 100 µM | PC-3 > 100 µM | MDA-MB-231 > 100 µM | MDA-N > 100 µM | CCRF-CEM > 100 µM | SW-620 > 100 µM | SF-268 > 100 µM | TK-10 > 100 µM | COLO 205 > 100 µM | OVCAR-4 > 100 µM | SNB-19 > 100 µM | CAKI-1 > 100 µM | HL-60 > 100 µM | A549 > 100 µM | SK-MEL-5 > 100 µM

O=C1c2cc3c(cc2CC12Cc1ccc4c(c1C2=O)CCC4)CCC3 (configuration not stated)
inactive: DU-145 > 100 µM | K562 > 100 µM | HCC 2998 > 100 µM | UACC-257 > 100 µM | U-251 33.6 µM | PC-3 > 100 µM | MDA-MB-231 > 100 µM | MDA-N > 100 µM | CCRF-CEM > 100 µM | SW-620 > 100 µM | SF-268 > 100 µM | TK-10 > 100 µM | NCI-H460 > 100 µM | OVCAR-4 50.6 µM | SNB-19 94.6 µM | CAKI-1 > 100 µM | HL-60 > 100 µM | A549 > 100 µM | SK-MEL-5 > 100 µM
